Drawing on patent US12723063B2, “GIPR-agonist compounds” (Eli Lilly and Company, priority 2019, dated 2026), this text covers Ki for six compounds.

One test addresses T1, human GIPR (Homo sapiens, UniProt P48546).
T1 construct: expressed in transfected cells; crude membranes
T1 sequence (P48546 22-466): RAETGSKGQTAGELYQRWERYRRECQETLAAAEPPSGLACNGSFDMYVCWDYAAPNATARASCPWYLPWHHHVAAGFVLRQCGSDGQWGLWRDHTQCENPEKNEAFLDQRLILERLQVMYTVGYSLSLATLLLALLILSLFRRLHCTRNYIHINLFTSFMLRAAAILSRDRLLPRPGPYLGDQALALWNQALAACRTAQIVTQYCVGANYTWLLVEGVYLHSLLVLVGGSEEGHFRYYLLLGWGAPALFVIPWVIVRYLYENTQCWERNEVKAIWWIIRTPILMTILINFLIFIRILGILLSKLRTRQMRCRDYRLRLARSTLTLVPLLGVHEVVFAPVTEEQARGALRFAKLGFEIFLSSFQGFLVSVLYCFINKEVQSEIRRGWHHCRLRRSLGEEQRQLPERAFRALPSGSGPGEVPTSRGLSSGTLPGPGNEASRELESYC
Put plainly: [125I]-GIP binding, SPA with WGA beads, 0.1% bacitracin. Particulars: geometric mean, read-out: hGIPR Ki. The method in brief: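 Ki values are geometric means (SEM, n independent days), derived from four-parameter nonlinear regression of IC50. Membranes came from hGIPR-expressing CHO cells.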

A further test addresses T2, human GcgR (Homo sapiens, UniProt P47871).
T2 construct: expressed in transfected cells; crude membranes
As to the kind of experiment: [125I]-Glucagon binding, SPA with WGA beads, 0.1% bacitracin. Conditions: geometric mean, read-out: hGcgR Ki. The method in brief:
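SPA competition binding with WGA beads on crude membranes from HEK293 cells stably expressing hGcgR. Buffer: 25 mM HEPES pH 7.4, 2.5 mM CaCl2, 1 mM MgCl2, 0.1% bacitracin, 0.003% Tween-20; 10-point 3-fold dilutions, NSB with 1 μM Gcg.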

*1 amine or outer side, *2 acyl side, *3 side chain or, on linkers, in order; H or OH if unused. Where a SMILES comes first, the peptide text is derived from it. Side-chain parts run from the residue outwards. [ ]: non-standard residue; d: D form. The star is where a group is joined. C20 diacid = O=C(O)CCCCCCCCCCCCCCCCCCC(=O)*; γGlu = O=C(O)[C@H](CCC(=O)[*:2])N[*:1]; 4Pal = N[C@@H](Cc1ccncc1)C(=O)O; αMeL = CC(C)C[C@](C)(N)C(=O)O; Orn = NCCC[C@H](N)C(=O)O; AEEA = NCCOCCOCC(=O)O; Aib = CC(C)(N)C(=O)O

T2 sequence (P47871 26-477): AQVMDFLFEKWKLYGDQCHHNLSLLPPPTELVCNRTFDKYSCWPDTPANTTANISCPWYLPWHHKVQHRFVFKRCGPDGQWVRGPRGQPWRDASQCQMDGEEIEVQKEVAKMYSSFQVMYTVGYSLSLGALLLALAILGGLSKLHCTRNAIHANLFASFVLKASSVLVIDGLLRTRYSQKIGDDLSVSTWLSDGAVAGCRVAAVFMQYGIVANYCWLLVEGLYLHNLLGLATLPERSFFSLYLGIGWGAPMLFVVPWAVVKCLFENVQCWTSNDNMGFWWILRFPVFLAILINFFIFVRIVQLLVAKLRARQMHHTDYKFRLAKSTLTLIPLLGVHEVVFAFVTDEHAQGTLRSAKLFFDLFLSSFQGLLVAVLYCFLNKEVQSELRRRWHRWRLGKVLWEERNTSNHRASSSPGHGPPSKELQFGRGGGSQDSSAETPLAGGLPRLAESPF

Turning to `CC[C@H](C)[C@H](NC(=O)[C@H](Cc1ccccc1)NC(=O)[C@@H](NC(=O)CNC(=O)[C@H](CCC(=O)O)NC(=O)C(C)(C)NC(=O)[C@@H](N)Cc1ccc(O)cc1)[C@@H](C)O)C(=O)N[C@@H](CO)C(=O)N[C@@H](CC(=O)O)C(=O)N[C@@H](Cc1ccc(O)cc1)C(=O)N[C@@H](CO)C(=O)N[C@H](C(=O)N[C@@](C)(CC(C)C)C(=O)N[C@@H](CC(C)C)C(=O)N[C@@H](CC(=O)O)C(=O)N[C@@H](CCCCN)C(=O)N[C@@H](CCCCNC(=O)COCCOCCNC(=O)COCCOCCNC(=O)CC[C@H](NC(=O)CCCCCCCCCCCCCCCCCCC(=O)O)C(=O)O)C(=O)N[C@@H](Cc1c[nH]cn1)C(=O)N[C@@H](CCC(N)=O)C(=O)NC(C)(C)C(=O)N[C@@H](CC(=O)O)C(=O)N[C@@H](Cc1ccccc1)C(=O)N[C@H](C(=O)N[C@@H](CCC(=O)O)C(=O)N[C@@H](Cc1ccncc1)C(=O)N[C@@H](CC(C)C)C(=O)N[C@@H](CC(C)C)C(=O)N[C@@H](C)C(=O)N[C@@H](CCC(N)=O)C(=O)NCC(=O)N1CCC[C@H]1C(=O)N[C@@H](CO)C(=O)N[C@@H](CO)C(=O)NCC(=O)N[C@@H](C)C(=O)N1CCC[C@H]1C(=O)N1CCC[C@H]1C(=O)N1CCC[C@H]1C(=O)N[C@@H](CO)C(N)=O)C(C)C)[C@@H](C)CC` [Example 79] (H-Y[Aib]EGTFISDYSI[αMeL]LDKK([AEEA-AEEA-γGlu-C20 diacid])HQ[Aib]DFVE[4Pal]LLAQGPSSGAPPPS-NH2), the Ki on human GIPR was determined as 0.0229 nM; at human GcgR, 888 nM.
On the same counts, the results for `CC[C@H](C)[C@H](NC(=O)[C@H](Cc1ccccc1)NC(=O)[C@@H](NC(=O)CNC(=O)[C@H](CCC(=O)O)NC(=O)C(C)(C)NC(=O)[C@@H](N)Cc1ccc(O)cc1)[C@@H](C)O)C(=O)N[C@@H](CO)C(=O)N[C@@H](CC(=O)O)C(=O)N[C@@H](Cc1ccc(O)cc1)C(=O)N[C@@H](CO)C(=O)N[C@H](C(=O)N[C@@](C)(CC(C)C)C(=O)N[C@@H](CC(C)C)C(=O)N[C@@H](CC(=O)O)C(=O)N[C@@H](CCCN)C(=O)N[C@@H](CCCCNC(=O)COCCOCCNC(=O)COCCOCCNC(=O)CC[C@H](NC(=O)CCCCCCCCCCCCCCCCCCC(=O)O)C(=O)O)C(=O)N[C@@H](Cc1c[nH]cn1)C(=O)N[C@@H](CCC(N)=O)C(=O)NC(C)(C)C(=O)N[C@@H](CC(=O)O)C(=O)N[C@@H](Cc1ccccc1)C(=O)N[C@H](C(=O)N[C@@H](CCC(=O)O)C(=O)N[C@@H](Cc1ccncc1)C(=O)N[C@@H](CC(C)C)C(=O)N[C@@H](CC(C)C)C(=O)N[C@@H](CCC(=O)O)C(=O)N[C@H](C(=O)NCC(=O)N1CCC[C@H]1C(=O)N[C@@H](CO)C(=O)N[C@@H](CO)C(=O)NCC(=O)N[C@@H](C)C(=O)N1CCC[C@H]1C(=O)N1CCC[C@H]1C(=O)N1CCC[C@H]1C(=O)N[C@@H](CO)C(N)=O)[C@@H](C)O)C(C)C)[C@@H](C)CC` [Example 80] (H-Y[Aib]EGTFISDYSI[αMeL]LD[Orn]K([AEEA-AEEA-γGlu-C20 diacid])HQ[Aib]DFVE[4Pal]LLETGPSSGAPPPS-NH2) are 0.0828 nM and over 958 nM.
Taken in the same sequence, the figures for `CC[C@H](C)[C@H](NC(=O)[C@H](Cc1ccccc1)NC(=O)[C@@H](NC(=O)CNC(=O)[C@H](CCC(=O)O)NC(=O)C(C)(C)NC(=O)[C@@H](N)Cc1ccc(O)cc1)[C@@H](C)O)C(=O)N[C@@H](CO)C(=O)N[C@@H](CC(=O)O)C(=O)N[C@@H](Cc1ccc(O)cc1)C(=O)N[C@@H](CO)C(=O)N[C@H](C(=O)N[C@@](C)(CC(C)C)C(=O)N[C@@H](CC(C)C)C(=O)N[C@@H](CC(=O)O)C(=O)N[C@@H](CCCN)C(=O)N[C@@H](CCCCNC(=O)COCCOCCNC(=O)COCCOCCNC(=O)CC[C@H](NC(=O)CCCCCCCCCCCCCCCCCCC(=O)O)C(=O)O)C(=O)N[C@@H](Cc1c[nH]cn1)C(=O)N[C@@H](CCC(N)=O)C(=O)NC(C)(C)C(=O)N[C@@H](CC(=O)O)C(=O)N[C@@H](Cc1ccccc1)C(=O)N[C@H](C(=O)N[C@@H](CCC(=O)O)C(=O)N[C@@H](Cc1ccncc1)C(=O)N[C@@H](CC(C)C)C(=O)N[C@@H](CC(C)C)C(=O)N[C@@H](CCC(=O)O)C(=O)N[C@@H](CCC(N)=O)C(=O)NCC(=O)N1CCC[C@H]1C(=O)N[C@@H](CO)C(=O)N[C@@H](CO)C(=O)NCC(=O)N[C@@H](C)C(=O)N1CCC[C@H]1C(=O)N1CCC[C@H]1C(=O)N1CCC[C@H]1C(=O)N[C@@H](CO)C(N)=O)C(C)C)[C@@H](C)CC` [Example 81] (H-Y[Aib]EGTFISDYSI[αMeL]LD[Orn]K([AEEA-AEEA-γGlu-C20 diacid])HQ[Aib]DFVE[4Pal]LLEQGPSSGAPPPS-NH2) were 0.0374 nM and 699 nM.
Taken in the same sequence, the figures for `CC[C@H](C)[C@H](NC(=O)[C@H](Cc1ccccc1)NC(=O)[C@@H](NC(=O)CNC(=O)[C@H](CCC(=O)O)NC(=O)C(C)(C)NC(=O)[C@@H](N)Cc1ccc(O)cc1)[C@@H](C)O)C(=O)N[C@@H](CO)C(=O)N[C@@H](CC(=O)O)C(=O)N[C@@H](Cc1ccc(O)cc1)C(=O)N[C@@H](CO)C(=O)N[C@H](C(=O)N[C@@](C)(CC(C)C)C(=O)N[C@@H](CC(C)C)C(=O)N[C@@H](CC(=O)O)C(=O)N[C@@H](CCCN)C(=O)N[C@@H](CCCCNC(=O)COCCOCCNC(=O)COCCOCCNC(=O)CC[C@H](NC(=O)CCCCCCCCCCCCCCCCCCC(=O)O)C(=O)O)C(=O)N[C@@H](Cc1c[nH]cn1)C(=O)N[C@@H](CCC(N)=O)C(=O)NC(C)(C)C(=O)N[C@@H](CC(=O)O)C(=O)N[C@@H](Cc1ccccc1)C(=O)N[C@H](C(=O)N[C@@H](CCC(=O)O)C(=O)N[C@@H](Cc1ccncc1)C(=O)N[C@@H](CC(C)C)C(=O)N[C@@H](CC(C)C)C(=O)N[C@@H](CCC(=O)O)C(=O)NCC(=O)NCC(=O)N1CCC[C@H]1C(=O)N[C@@H](CO)C(=O)N[C@@H](CO)C(=O)NCC(=O)N[C@@H](C)C(=O)N1CCC[C@H]1C(=O)N1CCC[C@H]1C(=O)N1CCC[C@H]1C(=O)N[C@@H](CO)C(N)=O)C(C)C)[C@@H](C)CC` [Example 82] (H-Y[Aib]EGTFISDYSI[αMeL]LD[Orn]K([AEEA-AEEA-γGlu-C20 diacid])HQ[Aib]DFVE[4Pal]LLEGGPSSGAPPPS-NH2) were 0.0617 nM and 305 nM.
For the compound `CC[C@H](C)[C@H](NC(=O)[C@H](Cc1ccccc1)NC(=O)[C@@H](NC(=O)CNC(=O)[C@H](CCC(=O)O)NC(=O)C(C)(C)NC(=O)[C@@H](N)Cc1ccc(O)cc1)[C@@H](C)O)C(=O)N[C@@H](CO)C(=O)N[C@@H](CC(=O)O)C(=O)N[C@@H](Cc1ccc(O)cc1)C(=O)N[C@@H](CO)C(=O)N[C@H](C(=O)N[C@@](C)(CC(C)C)C(=O)N[C@@H](CC(C)C)C(=O)N[C@@H](CC(=O)O)C(=O)N[C@@H](CCC(=O)O)C(=O)N[C@@H](CCCCNC(=O)COCCOCCNC(=O)COCCOCCNC(=O)CC[C@H](NC(=O)CCCCCCCCCCCCCCCCCCC(=O)O)C(=O)O)C(=O)N[C@@H](Cc1c[nH]cn1)C(=O)N[C@@H](CCC(N)=O)C(=O)NC(C)(C)C(=O)N[C@@H](CC(=O)O)C(=O)N[C@@H](Cc1ccccc1)C(=O)N[C@H](C(=O)N[C@@H](CCC(=O)O)C(=O)N[C@@H](Cc1ccncc1)C(=O)N[C@@H](CC(C)C)C(=O)N[C@@H](CC(C)C)C(=O)N[C@@H](C)C(=O)N[C@H](C(=O)NCC(=O)N1CCC[C@H]1C(=O)N[C@@H](CO)C(=O)N[C@@H](CO)C(=O)NCC(=O)N[C@@H](C)C(=O)N1CCC[C@H]1C(=O)N1CCC[C@H]1C(=O)N1CCC[C@H]1C(=O)N[C@@H](CO)C(N)=O)[C@@H](C)O)C(C)C)[C@@H](C)CC` [Example 83] (H-Y[Aib]EGTFISDYSI[αMeL]LDEK([AEEA-AEEA-γGlu-C20 diacid])HQ[Aib]DFVE[4Pal]LLATGPSSGAPPPS-NH2), the Ki was 0.116 nM on human GIPR and over 958 nM at human GcgR.
Take `CC[C@H](C)[C@H](NC(=O)[C@H](Cc1ccccc1)NC(=O)[C@@H](NC(=O)CNC(=O)[C@H](CCC(=O)O)NC(=O)C(C)(C)NC(=O)[C@@H](N)Cc1ccc(O)cc1)[C@@H](C)O)C(=O)N[C@@H](CO)C(=O)N[C@@H](CC(=O)O)C(=O)N[C@@H](Cc1ccc(O)cc1)C(=O)N[C@@H](CO)C(=O)N[C@H](C(=O)N[C@@](C)(CC(C)C)C(=O)N[C@@H](CC(C)C)C(=O)N[C@@H](CC(=O)O)C(=O)N[C@@H](CCC(=O)O)C(=O)N[C@@H](CCCCNC(=O)COCCOCCNC(=O)COCCOCCNC(=O)CC[C@H](NC(=O)CCCCCCCCCCCCCCCCCCC(=O)O)C(=O)O)C(=O)N[C@@H](Cc1c[nH]cn1)C(=O)N[C@@H](CCC(N)=O)C(=O)NC(C)(C)C(=O)N[C@@H](CC(=O)O)C(=O)N[C@@H](Cc1ccccc1)C(=O)N[C@H](C(=O)N[C@@H](CCC(=O)O)C(=O)N[C@@H](Cc1ccncc1)C(=O)N[C@@H](CC(C)C)C(=O)N[C@@H](CC(C)C)C(=O)N[C@@H](C)C(=O)N[C@@H](CCC(N)=O)C(=O)NCC(=O)N1CCC[C@H]1C(=O)N[C@@H](CO)C(=O)N[C@@H](CO)C(=O)NCC(=O)N[C@@H](C)C(=O)N1CCC[C@H]1C(=O)N1CCC[C@H]1C(=O)N1CCC[C@H]1C(=O)N[C@@H](CO)C(N)=O)C(C)C)[C@@H](C)CC` [Example 84] (H-Y[Aib]EGTFISDYSI[αMeL]LDEK([AEEA-AEEA-γGlu-C20 diacid])HQ[Aib]DFVE[4Pal]LLAQGPSSGAPPPS-NH2): the Ki at human GIPR was 0.0584 nM; at human GcgR, over 958 nM.

As usually defined, the Ki is a dissociation constant, usually derived from enzyme kinetics or from competition with a known ligand.
